Structures can show the parent of a compound that is named as a salt.
The compounds below were run against LRRK2 (G2019S mutation, GST-LRRK2 (amino acids 970-2527)) (Homo sapiens (Human), UniProt Q5S007, G2019S) (assay: LRRK2 Km ATP LanthaScreen Assay). Conditions: mean IC50 of several test results.
Format: biochemical
Source text: Unless otherwise noted, all LRRK2 IC50 data presented in tables refers to the LRRK2 Km ATP LanthaScreen™ Assay that is described in the Biological Assay section.
The data presented for the Km ATP LanthaScreen™ Assay represents mean IC50 values based on several test results and may have reasonable deviations depending on the specific conditions and reagents used. Reagents for the LRRK2 Km ATP LanthaScreen™ Assay were purchased from Life Technologies Corporation.
LRRK2 Km ATP LanthaScreen™ Assay
a) 400 nl of a 1:2.15 serial dilution of test compound (98 μM top assay concentration) is spotted via Labcyte Echo to certain wells in a 384 well black, untreated plate. Control wells contain 400 nl of either DMSO or 400 nl of a known inhibitor in DMSO.
c) A 30 minute room temperature incubation is followed by addition of 10 μl of 800 nM fluorescein labeled LRRKtide peptide substrate and 186 μM ATP solution in 1× assay buffer to all wells.
d) After a 60 minute room temperature incubation, 20 μl of TR-FRET Dilution Buffer (Invitrogen PV3756B) containing 4 nM Tb-labeled anti-phospho LRRKtide antibody and 20 mM EDTA is added to all wells.
e) Plates are incubated at room temperature for 1 hour and read on an Envision™ multi-mode plate reader with LanthaScreen™ settings. Results are analysed using Assay Data Analyzer.

Sequence of LRRK2 (G2019S mutation, GST-LRRK2 (amino acids 970-2527)) (Q5S007 970-2527 G2019S): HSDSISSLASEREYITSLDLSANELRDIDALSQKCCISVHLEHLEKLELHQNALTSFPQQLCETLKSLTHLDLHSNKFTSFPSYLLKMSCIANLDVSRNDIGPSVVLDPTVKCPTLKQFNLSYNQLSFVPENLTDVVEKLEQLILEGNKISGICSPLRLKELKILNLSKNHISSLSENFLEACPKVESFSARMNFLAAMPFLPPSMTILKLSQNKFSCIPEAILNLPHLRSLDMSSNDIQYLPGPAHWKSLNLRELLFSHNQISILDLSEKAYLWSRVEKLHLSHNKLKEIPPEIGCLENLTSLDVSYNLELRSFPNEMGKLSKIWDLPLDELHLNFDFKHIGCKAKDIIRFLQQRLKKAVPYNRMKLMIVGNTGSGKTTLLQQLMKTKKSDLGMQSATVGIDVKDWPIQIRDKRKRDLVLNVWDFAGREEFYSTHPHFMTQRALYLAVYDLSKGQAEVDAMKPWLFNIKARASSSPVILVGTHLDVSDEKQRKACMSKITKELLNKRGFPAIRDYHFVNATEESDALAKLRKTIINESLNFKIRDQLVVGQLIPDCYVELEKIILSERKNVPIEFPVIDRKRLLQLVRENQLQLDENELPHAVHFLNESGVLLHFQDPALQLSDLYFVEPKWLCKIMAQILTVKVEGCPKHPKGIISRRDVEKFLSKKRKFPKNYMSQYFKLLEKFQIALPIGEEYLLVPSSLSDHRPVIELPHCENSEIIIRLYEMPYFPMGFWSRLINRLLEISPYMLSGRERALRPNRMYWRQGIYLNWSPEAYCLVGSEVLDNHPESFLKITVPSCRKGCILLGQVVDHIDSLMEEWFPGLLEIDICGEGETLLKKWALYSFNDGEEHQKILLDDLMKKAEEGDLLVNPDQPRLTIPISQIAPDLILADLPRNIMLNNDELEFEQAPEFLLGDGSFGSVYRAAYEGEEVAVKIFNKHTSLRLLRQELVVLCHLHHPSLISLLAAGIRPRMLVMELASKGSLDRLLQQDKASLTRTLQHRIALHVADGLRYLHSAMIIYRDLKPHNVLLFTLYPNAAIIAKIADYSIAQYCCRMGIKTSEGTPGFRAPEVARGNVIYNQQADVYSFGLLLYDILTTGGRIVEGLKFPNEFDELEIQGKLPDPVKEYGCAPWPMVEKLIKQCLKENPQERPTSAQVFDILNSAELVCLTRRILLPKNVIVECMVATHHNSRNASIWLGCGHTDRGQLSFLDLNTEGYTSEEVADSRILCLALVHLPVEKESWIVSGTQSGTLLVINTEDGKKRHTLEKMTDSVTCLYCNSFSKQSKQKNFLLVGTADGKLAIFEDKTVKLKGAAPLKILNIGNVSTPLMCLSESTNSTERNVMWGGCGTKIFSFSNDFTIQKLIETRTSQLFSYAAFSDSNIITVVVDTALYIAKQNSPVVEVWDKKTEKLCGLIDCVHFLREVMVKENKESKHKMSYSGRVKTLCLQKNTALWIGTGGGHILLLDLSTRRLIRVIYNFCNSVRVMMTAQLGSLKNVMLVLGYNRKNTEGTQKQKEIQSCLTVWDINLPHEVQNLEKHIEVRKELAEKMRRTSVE

Row | Structure (SMILES) | IC50 [µM]
1 | c1ccc2c(c1)cnn2-c1ccnc(N2CCOCC2)c1 [Example 2, 4-(4-(1H-indazol-1-yl)pyridin-2-yl)morpholine] | 0.633
2 | Cn1cc(-c2cc(F)c3cnn(-c4ccnc(N5CCOCC5)c4)c3c2)cn1 [Example 3, 4-(4-(4-fluoro-6-(1-methyl-1H-pyrazol-4-yl)-1H-indazol-1-yl)pyridin-2-yl)morpholine] | 0.228
3 | CC(C)Oc1ccc2cnn(-c3ccnc(N4CCOCC4)c3)c2c1 [Example 4, 4-(4-(6-isopropoxy-1H-indazol-1-yl)pyridin-2-yl)morpholine hydrochloride] | 0.122
4 | Cn1cncc1-c1ccc2cnn(-c3ccnc(N4CCOCC4)c3)c2c1 [Example 6, 4-(4-(6-(1-methyl-1H-imidazol-5-yl)-1H-indazol-1-yl)pyridin-2-yl)morpholine] | 0.119
5 | CN1CCN(c2cc(-n3ncc4ccc(-c5cnn(C)c5)cc43)ccn2)CC1 [Example 9, 6-(1-methyl-1H-pyrazol-4-yl)-1-(2-(4-methylpiperazin-1-yl)pyridin-4-yl)-1H-indazole] | 0.056
6 | CN1CCN(c2cc(-n3ncc4ccc(-c5cnn(C)c5)cc43)ccn2)CC1=O [Example 10, 1-methyl-4-(4-(6-(1-methyl-1H-pyrazol-4-yl)-1H-indazol-1-yl)pyridin-2-yl)piperazin-2-one] | 0.126
7 | Cn1cc(-c2ccc3cnn(-c4ccnc(N5CC(F)(F)C5)c4)c3c2)cn1 [Example 11, 1-(2-(3,3-difluoroazetidin-1-yl)pyridin-4-yl)-6-(1-methyl-1H-pyrazol-4-yl)-1H-indazole] | 0.224
8 | Cn1cc(-c2ccc3cnn(-c4ccnc(N5CC[C@H](F)C5)c4)c3c2)cn1 [Example 13, (S)-1-(2-(3-fluoropyrrolidin-1-yl)pyridin-4-yl)-6-(1-methyl-1H-pyrazol-4-yl)-1H-indazole] | 0.108
9 | Cn1cc(-c2ccc3cnn(-c4ccnc(N5CC(F)C5)c4)c3c2)cn1 [Example 14, 1-(2-(3-fluoroazetidin-1-yl)pyridin-4-yl)-6-(1-methyl-1H-pyrazol-4-yl)-1H-indazole] | 0.145
10 | Cn1cc(-c2ccc3cnn(-c4ccnc(N5CCN(C(=O)OC(C)(C)C)CC5)c4)c3c2)cn1 [Example 15, tert-butyl 4-(4-(6-(1-methyl-1H-pyrazol-4-yl)-1H-indazol-1-yl)pyridin-2-yl)piperazine-1-carboxylate] | 0.034
11 | Cn1cc(-c2ccc3cnn(-c4ccnc(N5CCC(S(C)(=O)=O)CC5)c4)c3c2)cn1 [Example 16, 6-(1-methyl-1H-pyrazol-4-yl)-1-(2-(4-(methylsulfonyl)piperidin-1-yl)pyridin-4-yl)-1H-indazole] | 0.128
12 | c1cc(-n2ncc3ccc(-c4cn[nH]c4)cc32)cc(N2CCOCC2)n1 [Example 18, 4-(4-(6-(1H-pyrazol-4-yl)-1H-indazol-1-yl)pyridin-2-yl)morpholine] | 0.073
13 | CCn1cc(-c2ccc3cnn(-c4ccnc(N5CCOCC5)c4)c3c2)cn1 [Example 19, 4-(4-(6-(1-ethyl-1H-pyrazol-4-yl)-1H-indazol-1-yl)pyridin-2-yl)morpholine] | 0.128
14 | CC(C)Oc1ccc2cnn(-c3ccnc(N4CCn5ccnc5C4)c3)c2c1 [Example 23, 7-(4-(6-isopropoxy-1H-indazol-1-yl)pyridin-2-yl)-5,6,7,8-tetrahydroimidazo[1,2-a]pyrazine] | 0.446
15 | CCc1nnc2n1CCN(c1cc(-n3ncc4ccc(OC(C)C)cc43)ccn1)C2 [Example 24, 3-ethyl-7-(4-(6-isopropoxy-1H-indazol-1-yl)pyridin-2-yl)-5,6,7,8-tetrahydro-[1,2,4]triazolo[4,3-a]pyrazine] | 0.435
16 | CC(C)Oc1ccc2cnn(-c3ccnc(N4CCOC(CCO)C4)c3)c2c1 (centres unmarked) [Example 25, 2-(4-(4-(6-isopropoxy-1H-indazol-1-yl)pyridin-2-yl)morpholin-2-yl)ethanol] | 0.412

Row | Structure (SMILES) | IC50 [µM]
17 | CC(C)Oc1ccc2cnn(-c3ccnc(N4CCC4)c3)c2c1 [Example 26, 1-(2-(azetidin-1-yl)pyridin-4-yl)-6-isopropoxy-1H-indazole] | 0.584
18 | CC(C)Oc1ccc2cnn(-c3ccnc(N4CCN(CC5CCC5)CC4)c3)c2c1 [Example 27, 1-(2-(4-(cyclobutylmethyl)piperazin-1-yl)pyridin-4-yl)-6-isopropoxy-1H-indazole] | 0.362
19 | CC(C)Oc1ccc2cnn(-c3ccnc(N4CCO[C@@H](C)C4)c3)c2c1 [Example 28, (S)-4-(4-(6-isopropoxy-1H-indazol-1-yl)pyridin-2-yl)-2-methylmorpholine] | 0.612
20 | CC(C)Oc1ccc2cnn(-c3ccnc(N4CCO[C@H](C)C4)c3)c2c1 [Example 29, (R)-4-(4-(6-isopropoxy-1H-indazol-1-yl)pyridin-2-yl)-2-methylmorpholine] | 0.49
21 | CC(C)Oc1ccc2cnn(-c3ccnc(N4CC(C(C)(C)O)C4)c3)c2c1 [Example 30, 2-(1-(4-(6-isopropoxy-1H-indazol-1-yl)pyridin-2-yl)azetidin-3-yl)propan-2-ol] | 0.418
22 | CC(C)Oc1ccc2cnn(-c3ccnc(N4CCN(C)C(=O)C4)c3)c2c1 [Example 31, 4-(4-(6-isopropoxy-1H-indazol-1-yl)pyridin-2-yl)-1-methylpiperazin-2-one] | 0.443
23 | CC(C)Oc1ccc2cnn(-c3ccnc(N4C[C@@H](C)O[C@@H](C)C4)c3)c2c1 [Example 32, cis-4-(4-(6-isopropoxy-1H-indazol-1-yl)pyridin-2-yl)-2,6-dimethylmorpholine] | 0.245
24 | CC(C)Oc1ccc2cnn(-c3ccnc(N4CCN(c5ncccn5)CC4)c3)c2c1 [Example 33, 6-isopropoxy-1-(2-(4-(pyrimidin-2-yl)piperazin-1-yl)pyridin-4-yl)-1H-indazole] | 0.326
25 | CC(C)Oc1ccc2cnn(-c3ccnc(N4CCC(O)C4)c3)c2c1 (centres unmarked) [Example 34, 1-(4-(6-isopropoxy-1H-indazol-1-yl)pyridin-2-yl)pyrrolidin-3-ol] | 0.307
26 | CC(C)Oc1ccc2cnn(-c3ccnc(N4CCN(C)CC4)c3)c2c1 [Example 35, 6-isopropoxy-1-(2-(4-methylpiperazin-1-yl)pyridin-4-yl)-1H-indazole] | 0.181
27 | COC1CCCN(c2cc(-n3ncc4ccc(OC(C)C)cc43)ccn2)C1 (centres unmarked) [Example 36, 6-isopropoxy-1-(2-(3-methoxypiperidin-1-yl)pyridin-4-yl)-1H-indazole] | 0.596
28 | CC(C)Oc1ccc2cnn(-c3ccnc(N4CCCC4)c3)c2c1 [Example 37, 6-isopropoxy-1-(2-(pyrrolidin-1-yl)pyridin-4-yl)-1H-indazole] | 0.229
29 | CC(C)Oc1ccc2cnn(-c3ccnc(N4CCN(CCO)CC4)c3)c2c1 [Example 39, 2-(4-(4-(6-isopropoxy-1H-indazol-1-yl)pyridin-2-yl)piperazin-1-yl)ethanol] | 0.193
30 | CC(C)Oc1ccc2cnn(-c3ccnc(N4CCC(O)CC4)c3)c2c1 [Example 40, 1-(4-(6-isopropoxy-1H-indazol-1-yl)pyridin-2-yl)piperidin-4-ol] | 0.378
31 | COC1(C)CN(c2cc(-n3ncc4ccc(OC(C)C)cc43)ccn2)C1 [Example 41, 6-isopropoxy-1-(2-(3-methoxy-3-methylazetidin-1-yl)pyridin-4-yl)-1H-indazole] | 0.89
32 | CC(C)Oc1ccc2cnn(-c3ccnc(N4CC[C@@H](F)C4)c3)c2c1 [Example 42, (R)-1-(2-(3-fluoropyrrolidin-1-yl)pyridin-4-yl)-6-isopropoxy-1H-indazole] | 0.412

Source: US10954240B2, “Compounds inhibiting leucine-rich repeat kinase enzyme activity” (Merck Sharp & Dohme Corp., priority 2014, dated 2021)
